Experimental data reported in the NIST ThermoML archive (doi:10.1021/je500513b).

Assay: mn = molality of the nth substance listed, in mol/kg
Settings: for surface tension liquid-gas: Pendant drop shape; for electrical conductivity: 100 kPa, Liquid, Mettler Toledo inLab 710

O [water] + CCCCCCCCCCCC[N+](C)(C)CCCCCC[N+](C)(C)CCCCCCCCCCCC.[Br-].[Br-]
Settings | surface tension liquid-gas [mN/m]
298.15 K, m2 = 0 | 71.98

CCCCCCCCCCCC[N+](C)(C)CCCC[N+](C)(C)CCCCCCCCCCCC.[Br-].[Br-] + O
Settings | electrical conductivity [S/m] | surface tension liquid-gas [mN/m]
298.15 K, m1 = 0.0001 | – | 60.26
298.15 K, m1 = 0.0002 | – | 54.58
298.15 K, m1 = 0.0004 | – | 47.36
298.15 K, m1 = 0.0006 | – | 42.42
298.15 K, m1 = 0.0007 | – | 40.35
298.15 K, m1 = 0.0008 | – | 38.82
298.15 K, m1 = 0.00085 | – | 38.23
298.15 K, m1 = 0.0009 | – | 36.43
298.15 K, m1 = 0.001 | – | 35.92
298.15 K, m1 = 0.0011 | – | 35.45
298.15 K, m1 = 0.0012 | – | 35.19
298.15 K, m1 = 0.0015 | – | 35.13
298.15 K, m1 = 0.002 | – | 35.1
298.15 K, m1 = 0.56 | 1.13 | –
298.15 K, m1 = 0.59 | 1.2 | –
298.15 K, m1 = 0.63 | 1.28 | –
298.15 K, m1 = 0.67 | 1.36 | –
298.15 K, m1 = 0.7 | 1.42 | –
298.15 K, m1 = 0.74 | 1.5 | –
298.15 K, m1 = 0.78 | 1.57 | –
298.15 K, m1 = 0.83 | 1.66 | –
298.15 K, m1 = 0.87 | 1.73 | –
298.15 K, m1 = 0.91 | 1.79 | –
298.15 K, m1 = 0.95 | 1.86 | –
298.15 K, m1 = 1 | 1.93 | –
298.15 K, m1 = 1.05 | 2 | –
298.15 K, m1 = 1.11 | 2.06 | –
298.15 K, m1 = 1.18 | 2.13 | –
298.15 K, m1 = 1.25 | 2.2 | –
298.15 K, m1 = 1.33 | 2.25 | –
298.15 K, m1 = 1.43 | 2.32 | –
298.15 K, m1 = 1.54 | 2.39 | –
298.15 K, m1 = 1.67 | 2.46 | –
298.15 K, m1 = 1.82 | 2.53 | –
298.15 K, m1 = 2 | 2.63 | –
303.15 K, m1 = 0.57 | 1.32 | –
303.15 K, m1 = 0.63 | 1.43 | –
303.15 K, m1 = 0.67 | 1.53 | –
303.15 K, m1 = 0.7 | 1.61 | –
303.15 K, m1 = 0.74 | 1.69 | –
303.15 K, m1 = 0.78 | 1.78 | –
303.15 K, m1 = 0.83 | 1.86 | –
303.15 K, m1 = 0.87 | 1.93 | –
303.15 K, m1 = 0.91 | 2.01 | –
303.15 K, m1 = 0.95 | 2.1 | –
303.15 K, m1 = 1 | 2.18 | –
303.15 K, m1 = 1.05 | 2.25 | –
303.15 K, m1 = 1.11 | 2.34 | –
303.15 K, m1 = 1.18 | 2.41 | –
303.15 K, m1 = 1.25 | 2.47 | –
303.15 K, m1 = 1.33 | 2.56 | –
303.15 K, m1 = 1.43 | 2.63 | –
303.15 K, m1 = 1.54 | 2.72 | –
303.15 K, m1 = 1.67 | 2.8 | –
303.15 K, m1 = 1.74 | 2.84 | –
303.15 K, m1 = 2 | 2.99 | –
308.15 K, m1 = 0.56 | 1.42 | –
308.15 K, m1 = 0.59 | 1.5 | –
308.15 K, m1 = 0.63 | 1.59 | –
308.15 K, m1 = 0.67 | 1.69 | –
308.15 K, m1 = 0.7 | 1.76 | –
308.15 K, m1 = 0.74 | 1.85 | –
308.15 K, m1 = 0.78 | 1.95 | –
308.15 K, m1 = 0.83 | 2.06 | –
308.15 K, m1 = 0.87 | 2.14 | –
308.15 K, m1 = 0.91 | 2.22 | –
308.15 K, m1 = 0.95 | 2.32 | –
308.15 K, m1 = 1 | 2.41 | –
308.15 K, m1 = 1.05 | 2.51 | –
308.15 K, m1 = 1.11 | 2.62 | –
308.15 K, m1 = 1.18 | 2.71 | –
308.15 K, m1 = 1.25 | 2.8 | –
308.15 K, m1 = 1.33 | 2.9 | –
308.15 K, m1 = 1.43 | 2.98 | –
308.15 K, m1 = 1.54 | 3.08 | –
308.15 K, m1 = 1.67 | 3.16 | –
308.15 K, m1 = 1.82 | 3.27 | –
308.15 K, m1 = 2 | 3.39 | –
313.15 K, m1 = 0.62 | 1.66 | –
313.15 K, m1 = 0.66 | 1.78 | –
313.15 K, m1 = 0.7 | 1.91 | –
313.15 K, m1 = 0.74 | 2 | –
313.15 K, m1 = 0.78 | 2.12 | –
313.15 K, m1 = 0.83 | 2.24 | –
313.15 K, m1 = 0.89 | 2.38 | –
313.15 K, m1 = 0.95 | 2.54 | –
313.15 K, m1 = 1 | 2.64 | –
313.15 K, m1 = 1.05 | 2.76 | –
313.15 K, m1 = 1.11 | 2.87 | –
313.15 K, m1 = 1.18 | 3.01 | –
313.15 K, m1 = 1.25 | 3.13 | –
313.15 K, m1 = 1.33 | 3.24 | –
313.15 K, m1 = 1.43 | 3.34 | –
313.15 K, m1 = 1.54 | 3.46 | –
313.15 K, m1 = 1.67 | 3.58 | –
313.15 K, m1 = 1.74 | 3.64 | –
313.15 K, m1 = 1.82 | 3.7 | –
313.15 K, m1 = 1.9 | 3.77 | –
313.15 K, m1 = 2 | 3.84 | –
318.15 K, m1 = 0.61 | 1.79 | –
318.15 K, m1 = 0.65 | 1.91 | –
318.15 K, m1 = 0.69 | 2.05 | –
318.15 K, m1 = 0.74 | 2.19 | –
318.15 K, m1 = 0.78 | 2.33 | –
318.15 K, m1 = 0.83 | 2.45 | –
318.15 K, m1 = 0.89 | 2.61 | –
318.15 K, m1 = 0.95 | 2.78 | –
318.15 K, m1 = 1 | 2.9 | –
318.15 K, m1 = 1.05 | 3.04 | –
318.15 K, m1 = 1.11 | 3.18 | –
318.15 K, m1 = 1.18 | 3.33 | –
318.15 K, m1 = 1.25 | 3.47 | –
318.15 K, m1 = 1.33 | 3.61 | –
318.15 K, m1 = 1.43 | 3.76 | –
318.15 K, m1 = 1.54 | 3.91 | –
318.15 K, m1 = 1.67 | 4.04 | –
318.15 K, m1 = 1.74 | 4.11 | –
318.15 K, m1 = 1.82 | 4.19 | –
318.15 K, m1 = 1.9 | 4.26 | –
318.15 K, m1 = 2 | 4.32 | –
323.15 K, m1 = 0.57 | 1.86 | –
323.15 K, m1 = 0.61 | 1.97 | –
323.15 K, m1 = 0.65 | 2.09 | –
323.15 K, m1 = 0.69 | 2.24 | –
323.15 K, m1 = 0.74 | 2.4 | –
323.15 K, m1 = 0.78 | 2.55 | –
323.15 K, m1 = 0.83 | 2.72 | –
323.15 K, m1 = 0.89 | 2.87 | –
323.15 K, m1 = 0.95 | 3.03 | –
323.15 K, m1 = 1 | 3.16 | –
323.15 K, m1 = 1.05 | 3.31 | –
323.15 K, m1 = 1.11 | 3.47 | –
323.15 K, m1 = 1.18 | 3.66 | –
323.15 K, m1 = 1.25 | 3.84 | –
323.15 K, m1 = 1.33 | 4.03 | –
323.15 K, m1 = 1.43 | 4.21 | –
323.15 K, m1 = 1.54 | 4.38 | –
323.15 K, m1 = 1.6 | 4.48 | –
323.15 K, m1 = 1.67 | 4.57 | –
323.15 K, m1 = 1.74 | 4.65 | –
323.15 K, m1 = 1.82 | 4.73 | –
323.15 K, m1 = 1.9 | 4.81 | –
323.15 K, m1 = 2 | 4.89 | –
